Where “and” joins values, the source holds several entries; their conditions need not be identical. Equal entries are not always repeated. Entries after “also recorded” stand apart in the source; their conditions may differ.
Key:
[1] = system: monocyte chemoattractant protein-1 (MCP-1); assay: Assay C: MCP-1 mRNA in heart by TaqMan RT-PCR; type: in vivo, Male Sprague-Dawley rats; conditions: for MCP-1 mRNA (AU): relative to cyclophilin expression, mean ± SEM, eplerenone dose 100 mg/kg/day; for MCP1 (AU): mRNA, individual rats, incl. rat marked * excluded from statistics; for MCP-1 mRNA expression: myocardium, aldosterone + salt, 7, 14, 30 days, eplerenone 100 mg/kg/day
Experimental: The procedure of Assay B was expanded upon in a further study. […] Myocardial tissue from animals in each treatment group was examined after 7, 14, or 30 days of treatment.
Potassium chloride supplementation was added to the saline solution in order to prevent the potential hypokalemia associated with aldosterone excess.
At the time of the surgery, an Alzet 2002 osmotic minipump (Alza Corp., Palo Alto, Calif.) containing either vehicle (9% ethanol/87% propylene glycol/4% dH2O) or 1.0 mg/mL d-aldosterone (Sigma Chemical, St. Louis, Mo.) was inserted subcutaneously at the nape of the neck. Aldosterone was administered at a dose of 0.75 µg/hour. […] Animals were sacrificed from each group (n=8-13) after 7, 14, or 30 days of treatment.
The fluorogenic 5′-nuclease assay (TaqMan PCR) using Applied Biosystems' 7700 Sequence Detection System (Applied Biosystems, Foster City, Calif.) allowed for real time detection/quantitation of a specific gene by monitoring the increase in fluorescence of a gene-specific, dye-labeled oligonucleotide probe. Probes for target and reference genes were labeled at the 5′-end with a 6-carboxyfluorescein (6FAM) reporter dye and at the 3′-end with a 6-carboxy-N,N,N′,N′-tetramethylrhodamine (TAMRA) quencher dye. When the probe was annealed to the target gene, fluorescence of 6FAM was prevented by the close proximity of TAMRA. The exonuclease activity of Taq polymerase released the dyes from the oligonucleotide probe by displacing the probe from the target sequence resulting in fluorescence excitation in direct proportion to the amount of target message present. Data analysis was performed using the Sequence Detection System software from Applied Biosystems.
All primers and probes were designed using Primer Express software supplied with the 7700 Sequence Detection System and synthesized by Applied Biosystems. Standard curves using 5-fold dilutions of total RNA (from 200 ng to 320 pg) were performed to determine the efficiency of each primer/probe set in the TaqMan reaction prior to the analysis of the experimental samples. Primer/probe sets were designed from known sequences of rat genes to be analyzed. All target gene values were normalized to a reference gene, constitutively expressed cyclophilin. Primer/probe set sequences can be found in Table 8.
RNA was extracted from frozen (−80° C.) rat heart tissue using the Totally RNA Isolation Kit (Ambion, Inc., Austin, Tex.). Tissue was crushed using a stainless steel mortar and pestle, which had been chilled to −80° C. and transferred to a dounce homogenizer (Kontes, Vineland, N.J.) containing 3-10 mL cold denaturation buffer. Tissue was homogenized and transferred to a sterile, 15 mL polypropylene centrifuge tube. An equal volume of phenol:chloroform:isoamyl alcohol (25:24:1) was added, samples were shaken vigorously for 1 min, and incubated on ice for at least 15 min. Samples were centrifuged for 30 min at 10,000g. The aqueous phase was removed, 1/10 volume of a sodium acetate solution (3.0 M NaOAc pH 4.5) was added, samples were shaken or inverted for 10 seconds, and acid-phenol (premixed with isoamyl alcohol):chloroform (5:1, Ambion, Inc.) was added at an volume equivalent to the starting sample volume. Samples were shaken vigorously for 1 min, followed by a 15-min incubation on ice, and centrifuged for 30 min at 10,000 g. The aqueous phase removed and placed in a clean polypropylene tube. An equal volume of isopropanol (Sigma, St. Louis, Mo.) was added and the samples were mixed and incubated overnight at −20° C. The samples were centrifuged for 30 min at 10,000 g, the supernatant was removed and the RNA pellet was resuspended in DNAse/RNAse-free water. Samples were frozen at −80° C. for at least 2 hours, thawed on wet ice, and diluted for quantitation.

[2] = system: myocardial injury; assay: Assay C: histopathologic analysis, semi-quantitative myocardial injury score 0 to 4; type: in vivo, Male Sprague-Dawley rats; conditions: for Myocardial injury / vascular inflammatory damage (histopathology): aldosterone + salt, 7, 14, 30 days, eplerenone 100 mg/kg/day; for Myocardia 1 Necrosis (0-4): eplerenone dose 100 mg/kg/day
Experimental: The procedure of Assay B was expanded upon in a further study. […] Myocardial tissue from animals in each treatment group was examined after 7, 14, or 30 days of treatment. […] Lesions were preceded by the expression and progressive upregulation of proinflammatory molecules. […] Prior to surgery the animals were individually weighed and placed in one of the following groups: […] Potassium chloride supplementation was added to the saline solution in order to prevent the potential hypokalemia associated with aldosterone excess. […] Louis, Mo.) was inserted subcutaneously at the nape of the neck. Aldosterone was administered at a dose of 0.75 µg/hour. […] Animals were sacrificed from each group (n=8-13) after 7, 14, or 30 days of treatment. Following exsanguination, hearts and kidneys were isolated, removed, rinsed in cold phosphate-buffered saline, and blotted dry. […] The equatorial regions of the heart were routinely processed into paraffin with an automated tissue processor (Hypercenter XP, Shandon/Lipshaw Inc., Pittsburgh, Pa.) and embedded into fresh paraffin apical side down (Shandon Embedding Center, Shandon/Lipshaw Inc.). Five and 10 µm sections were cut from each block of tissue using a Leica RM2035 rotary microtome (Leica Inc., Houston, Tex.) and mounted on Superfrost/Plus microscope slides (Fisher Scientific, Pittsburgh, Pa.). Ten […]m sections were stained with the collagen specific stain, Picrosirius Red F3BA (Saturated Picric Acid (Sigma Chemical, St. […] Waterbury, Conn.) (6). Mounted tissues were hydrated with water. […] Slides were coverslipped with #1 cover glass using Permount Histological Mounting Media (Fisher Scientific). Two slides mounted with 5 µm sections were cut for each animal. One slide was processed for H&E staining and one for Periodic Acid Schiff (PAS) staining. The H&E and PAS were used for pathological scoring of the hearts. Semi-quantification of myocardial injury was performed as described previously with minor modifications (7). Briefly, a scale from 0 to 4 was used to score the level of myocardial injury. A score of 0 represented no damage. […] Myocardial necrosis was defined as the presence of necrotic changes in cardiomyocytes such as nuclear pyknosis or karyolysis, non-contracting marginal wavy fibers and hypereosinophilia of the cytoplasm, or clear evidence of destruction of the cardiomyocyte membrane.

[3] = 7-day protocol, score 0-4, individual rats and group Mean
[4] = group mean, data used for Table 15 (14 days of treatment)
[5] = group mean, data used for Table 16 (30 days of treatment)
[6] = mean ± SEM after 7 days of treatment
[7] = mean ± SEM after 14 days of treatment
[8] = mean ± SEM after 30 days of treatment

Row | Structure (SMILES) | MCP-1 mRNA (AU) ([1]; after 7 days of treatment) | MCP-1 mRNA (AU) ([1]; after 14 days of treatment) | MCP-1 mRNA (AU) ([1]; after 30 days of treatment) | MCP-1 mRNA expression [1] | Myocardial Necrosis (0-4) [2, 3] | Myocardial injury / vascular inflammatory damage (histopathology) [2] | Myocardial Necrosis (0-4) [2, 4] | Myocardial Necrosis (0-4) [2, 5] | Myocardia 1 Necrosis (0-4) [2, 6] | Myocardia 1 Necrosis (0-4) [2, 7] | Myocardia 1 Necrosis (0-4) [2, 8] | other results
1 | C[C@]12CCC(=O)C=C1CC[C@@H]1[C@@H]2[C@@H](O)C[C@]2(C=O)[C@@H](C(=O)CO)CC[C@@H]12 [Aldosterone] | 2.38 AU | 2.76 AU | 4.54 AU | significantly increased | 0.0 | focal arterial and myocardial alterations were observed starting at 14 days; also recorded: induced vascular inflammation and cardiac tissue damage | 0.8 | 2.0 | 0.0 ± 0.0 | 0.8 ± 0.3 | 2.0 ± 0.4 | MCP1 (AU) ([1]; data used for Table 17 (7-day protocol), listed as Aldosterone + salt): 2.05 AU and 1.78 AU and 3.06 AU and 2.36 AU and 1.95 AU and 2.33 AU and 3.14 AU and 2.40 AU and 5.17 AU; MCP1 (AU) ([1]; data used for Table 18 (14-day protocol), listed as Aldosterone + salt): 2.42 AU and 1.87 AU and 4.59 AU and 3.19 AU and 3.34 AU and 1.91 AU and 2.50 AU and 2.22 AU and 5.88 AU; MCP1 (AU) ([1]; data used for Table 19 (30-day protocol), listed as Aldosterone + salt): 3.94 AU and 7.19 AU and 1.61 AU and 9.35 AU and 2.30 AU and 2.86 AU; Myocardial Necrosis (0-4) ([2]; individual rats, data used for Table 15 (14 days of treatment), incl. rat marked * excluded from statistics, listed as Aldosterone + salt): 0.0 (7×) and 1.0 (3×) and 3.0 (3×); Myocardial Necrosis (0-4) ([2]; individual rats, data used for Table 16 (30 days of treatment), incl. rat marked * excluded from statistics, listed as Aldosterone + salt): 1.5 and 2.5 and 3.0 (2×) and 2.0 (2×) and 0.5 and 0.3 and 3.5
2 | COC(=O)[C@@H]1CC2=CC(=O)CC[C@]2(C)[C@@]23O[C@@H]2C[C@@]2(C)[C@@H](CC[C@@]24CCC(=O)O4)[C@H]13 [Eplerenone] | 1.56 AU | 1.59 AU | 2.29 AU | inhibition; also recorded: significantly reduced | 0.0 | markedly attenuated | 0.5 | 0.0 | 0.0 ± 0.0 | 0.5 ± 0.2 | 0.0 ± 0.0 | MCP1 (AU) ([1]; data used for Table 17 (7-day protocol), listed as Eplerenone + aldosterone + salt): 2.35 AU and 1.60 AU and 0.85 AU and 0.83 AU and 1.74 AU and 2.38 AU and 0.67 AU and 2.03 AU; MCP1 (AU) ([1]; data used for Table 18 (14-day protocol), listed as Eplerenone + aldosterone + salt): 1.78 AU and 1.37 AU and 1.27 AU and 1.75 AU and 1.60 AU and 1.24 AU (2×) and 1.92 AU and 1.89 AU and 2.21 AU and 1.20 AU; MCP1 (AU) ([1]; data used for Table 19 (30-day protocol), listed as Eplerenone + aldosterone + salt): 2.11 AU (2×) and 1.70 AU and 2.21 AU and 1.38 AU and 2.10 AU and 2.02 AU and 1.43 AU and 5.58 AU and 8.14 AU; Myocardial Necrosis (0-4) ([2]; individual rats, data used for Table 15 (14 days of treatment), incl. rat marked * excluded from statistics, listed as Eplerenone + aldosterone + salt): 1.0 (3×) and 0.0 (7×) and 2.0; Myocardial Necrosis (0-4) ([2]; individual rats, data used for Table 16 (30 days of treatment), incl. rat marked * excluded from statistics): 0.0
